Experimental findings from article PMC5218480 (PLoS ONE, 2017) are described below.

The experiment deals with MV-4-11 cells. In words: Gene expression microarray analysis (Affymetrix PrimeView) and GSEA. To be noted: ProbeSet 11732165_x_at; LIST D. It is filed as cell-based, human. Also noted: RFU PODN (11730768_x_at) / Fold change /veh PODN (11730768_x_at) / RFU LINC00158 (11744669_a_at) / Fold change /veh LINC00158 (11744669_a_at) / RFU DUSP10 (11751237_a_at) / Fold change /veh DUSP10 (11751237_a_at) / RFU ID3 (11757404_x_at) / Fold change /veh ID3 (11757404_x_at) / RFU PLEKHG5 (11737974_s_at) / Fold change /veh PLEKHG5 (11737974_s_at) / RFU LRRC4B (11730491_at) / Fold change /veh LRRC4B (11730491_at) / RFU GIMAP4 (11747438_a_at) / Fold change /veh GIMAP4 (11747438_a_at) / RFU KRT8 (11758183_x_at) / Fold change /veh KRT8 (11758183_x_at) / RFU CNN1 (11734310_a_at) / Fold change /veh CNN1 (11734310_a_at) / RFU VPS37D (11726825_at) / Fold change /veh VPS37D (11726825_at) / RFU C10orf10 (11716522_x_at) / Fold change /veh C10orf10 (11716522_x_at) / RFU KIR2DL2 /// KIR2DL4 /// KIR2DL5A /// KIR2DL5B /// KIR2DS1 /// KIR2DS2 /// KIR2DS3 /// KIR2DS4 /// KIR3DL3 /// KIR3DL3 /// KIR3DS1 (11738374_at) / Fold change /veh KIR2DL2 /// KIR2DL4 /// KIR2DL5A /// KIR2DL5B /// KIR2DS1 /// KIR2DS2 /// KIR2DS3 /// KIR2DS4 /// KIR3DL3 /// KIR3DL3 /// KIR3DS1 (11738374_at) / RFU C1QL1 (11718748_at) / Fold change /veh C1QL1 (11718748_at) / RFU TMPRSS4 (11747572_a_at) / Fold change /veh TMPRSS4 (11747572_a_at) / RFU HAMP (11756126_x_at) / Fold change /veh HAMP (11756126_x_at) / RFU RNFT2 (11725882_a_at) / Fold change /veh RNFT2 (11725882_a_at) / RFU NR4A2 (11747474_a_at) / Fold change /veh NR4A2 (11747474_a_at) / RFU ABCC12 (11746883_a_at) / Fold change /veh ABCC12 (11746883_a_at) / RFU TMEM136 (11760407_x_at) / Fold change /veh TMEM136 (11760407_x_at) / RFU CLDN22 /// WWC2 (11732394_at) / Fold change /veh CLDN22 /// WWC2 (11732394_at) / RFU HLA-DPB1 (11760878_x_at) / Fold change /veh HLA-DPB1 (11760878_x_at) / RFU SPINT1 (11716480_a_at) / Fold change /veh SPINT1 (11716480_a_at) / RFU GAP43 (11754022_s_at) / Fold change /veh GAP43 (11754022_s_at) / RFU A4GNT (11735810_at) / Fold change /veh A4GNT (11735810_at) / RFU PRB3 (11715151_x_at) / Fold change /veh PRB3 (11715151_x_at) / RFU TUBB4B (11761932_at) / Fold change /veh TUBB4B (11761932_at) / RFU CAPN14 (11732068_a_at) / Fold change /veh CAPN14 (11732068_a_at) / RFU TMCC2 (11721928_a_at) / Fold change /veh TMCC2 (11721928_a_at) / RFU IRGQ (11745062_a_at) / Fold change /veh IRGQ (11745062_a_at) / RFU FAM174B (11720279_a_at) / Fold change /veh FAM174B (11720279_a_at) / RFU TMPRSS4 (11748680_a_at) / Fold change /veh TMPRSS4 (11748680_a_at) / RFU FAM212B (11763350_a_at) / Fold change /veh FAM212B (11763350_a_at) / RFU PLEKHG5 (11743358_a_at) / Fold change /veh PLEKHG5 (11743358_a_at) / RFU ZSCAN30 (11745921_a_at) / Fold change /veh ZSCAN30 (11745921_a_at) / RFU CMKLR1 (11741424_a_at) / Fold change /veh CMKLR1 (11741424_a_at) / RFU LOC101060620 /// MAPK8IP1 (11723275_at) / Fold change /veh LOC101060620 /// MAPK8IP1 (11723275_at) / RFU SPTSSB (11747773_x_at) / Fold change /veh SPTSSB (11747773_x_at) / RFU PRSS12 (11739890_at) / Fold change /veh PRSS12 (11739890_at) / RFU BIN1 (11741810_x_at) / Fold change /veh BIN1 (11741810_x_at) / RFU WNT11 (11732464_a_at) / Fold change /veh WNT11 (11732464_a_at) / RFU C10orf10 (11716521_a_at) / Fold change /veh C10orf10 (11716521_a_at) / RFU C5orf56 (11738089_at) / Fold change /veh C5orf56 (11738089_at) / RFU CYB561 (11721691_x_at) / Fold change /veh CYB561 (11721691_x_at) / RFU ANKRD19P (11752326_a_at) / Fold change /veh ANKRD19P (11752326_a_at) / RFU OR2T12 /// OR2T33 /// OR2T8 (11738714_s_at) / Fold change /veh OR2T12 /// OR2T33 /// OR2T8 (11738714_s_at) / RFU VCAN (11748164_a_at) / Fold change /veh VCAN (11748164_a_at) / RFU JSRP1 (11732532_at) / Fold change /veh JSRP1 (11732532_at) / RFU KRTAP10-11 (11738290_x_at) / Fold change /veh KRTAP10-11 (11738290_x_at) / RFU MYO3A (11730013_a_at) / Fold change /veh MYO3A (11730013_a_at) / RFU EBF3 (11725865_a_at) / Fold change /veh EBF3 (11725865_a_at) / RFU CAMK2N1 (11719241_x_at) / Fold change /veh CAMK2N1 (11719241_x_at) / RFU C5orf56 (11738088_a_at) / Fold change /veh C5orf56 (11738088_a_at) / RFU OLFML3 (11715873_a_at) / Fold change /veh OLFML3 (11715873_a_at) / RFU LOC100653217 /// NTM (11731650_a_at) / Fold change /veh LOC100653217 /// NTM (11731650_a_at) / RFU MAPK11 (11762145_a_at) / Fold change /veh MAPK11 (11762145_a_at) / RFU FIZ1 (11724087_x_at) / Fold change /veh FIZ1 (11724087_x_at) / RFU OASL (11726364_x_at) / Fold change /veh OASL (11726364_x_at) / RFU SOX15 (11748057_x_at) / Fold change /veh SOX15 (11748057_x_at) / RFU CD79A (11719716_a_at) / Fold change /veh CD79A (11719716_a_at) / RFU HIST1H1D (11736915_at) / Fold change /veh HIST1H1D (11736915_at) / RFU CASKIN2 (11723855_a_at) / Fold change /veh CASKIN2 (11723855_a_at) / RFU LOC730098 (11760151_x_at) / Fold change /veh LOC730098 (11760151_x_at) / RFU OR4N2 (11742367_at) / Fold change /veh OR4N2 (11742367_at) / RFU PRRT2 (11749266_a_at) / Fold change /veh PRRT2 (11749266_a_at) / RFU SNX32 (11753110_a_at) / Fold change /veh SNX32 (11753110_a_at) / RFU CDHR5 (11726645_a_at) / Fold change /veh CDHR5 (11726645_a_at) / RFU RCAN1 (11760418_a_at) / Fold change /veh RCAN1 (11760418_a_at) / RFU FAM167A (11723789_a_at) / Fold change /veh FAM167A (11723789_a_at) / RFU FAM26E (11764081_at) / Fold change /veh FAM26E (11764081_at) / RFU ISYNA1 (11749810_s_at) / Fold change /veh ISYNA1 (11749810_s_at) / RFU ACY1 (11761880_at) / Fold change /veh ACY1 (11761880_at) / RFU 11764098_at / Fold change /veh 11764098_at / RFU SAMD14 (11745864_x_at) / Fold change /veh SAMD14 (11745864_x_at) / RFU NPB (11741838_a_at) / Fold change /veh NPB (11741838_a_at) / RFU TMPRSS6 (11731388_a_at) / Fold change /veh TMPRSS6 (11731388_a_at) / RFU KRTAP10-2 (11738614_at) / Fold change /veh KRTAP10-2 (11738614_at) / RFU ARHGAP8 /// PRR5-ARHGAP8 (11727945_x_at) / Fold change /veh ARHGAP8 /// PRR5-ARHGAP8 (11727945_x_at) / RFU KRTAP5-7 /// NADSYN1 (11734609_at) / Fold change /veh KRTAP5-7 /// NADSYN1 (11734609_at) / RFU RASL12 (11751679_a_at) / Fold change /veh RASL12 (11751679_a_at) / RFU CDKN2B (11736163_a_at) / Fold change /veh CDKN2B (11736163_a_at) / RFU PRF1 (11729649_at) / Fold change /veh PRF1 (11729649_at) / RFU, ZNF638 /// ZNF638-IT1 / Fold change vs veh, ZNF638 /// ZNF638-IT1 / RFU, PANK3 / Fold change vs veh, PANK3 / RFU, SH3YL1 / Fold change vs veh, SH3YL1 / RFU, ZEB2 / Fold change vs veh, ZEB2 / RFU, NRIP1 / Fold change vs veh, NRIP1 / RFU, PTTG1IP / Fold change vs veh, PTTG1IP / RFU, CAPN2 / Fold change vs veh, CAPN2 / RFU, MED14 / Fold change vs veh, MED14 / RFU, SNORA58 / Fold change vs veh, SNORA58 / RFU, C1orf63 / Fold change vs veh, C1orf63 / RFU, LRRFIP1 / Fold change vs veh, LRRFIP1 / RFU, NDUFAF7 / Fold change vs veh, NDUFAF7 / RFU, SLC12A2 / Fold change vs veh, SLC12A2 / RFU, IBTK / Fold change vs veh, IBTK / RFU, ESF1 / Fold change vs veh, ESF1 / Fold change vs veh, TMEM50B / RFU, TAOK1 / Fold change vs veh, TAOK1 / RFU, ACBD3 / Fold change vs veh, ACBD3 / RFU, TMA16 / Fold change vs veh, TMA16 / RFU, RWDD3 / Fold change vs veh, RWDD3 / RFU, BCAT1 / Fold change vs veh, BCAT1 / RFU, EDEM3 / Fold change vs veh, EDEM3 / RFU, TMEM33 / Fold change vs veh, TMEM33 / RFU, WDR75 / Fold change vs veh, WDR75 / RFU, AHCTF1 / Fold change vs veh, AHCTF1 / RFU, TFRC / Fold change vs veh, TFRC / RFU, ZDHHC17 / Fold change vs veh, ZDHHC17 / RFU, NOM1 / Fold change vs veh, NOM1 / RFU, ARL8B / Fold change vs veh, ARL8B / RFU, ZBTB11 / Fold change vs veh, ZBTB11 / RFU, TAMM41 / Fold change vs veh, TAMM41 / RFU, KIAA1704 /// LOC100996395 / Fold change vs veh, KIAA1704 /// LOC100996395 / RFU, ING1 / Fold change vs veh, ING1 / RFU, TRMT61B / Fold change vs veh, TRMT61B / RFU, FUBP3 / Fold change vs veh, FUBP3 / RFU, TP53 / Fold change vs veh, TP53 / RFU, TNKS2 / Fold change vs veh, TNKS2 / RFU, ZFP14 / Fold change vs veh, ZFP14 / RFU, ACTR2 / Fold change vs veh, ACTR2 / RFU, PPP3R1 / Fold change vs veh, PPP3R1 / RFU, PIK3R1 / Fold change vs veh, PIK3R1 / RFU, HNRNPA1 / Fold change vs veh, HNRNPA1 / RFU, RNF170 / Fold change vs veh, RNF170 / RFU, ZNF28 / Fold change vs veh, ZNF28 / RFU, RNGTT / Fold change vs veh, RNGTT / RFU, OGT / Fold change vs veh, OGT / RFU, BRD1 / Fold change vs veh, BRD1 / RFU, MARS / Fold change vs veh, MARS / RFU, ZNF655 / Fold change vs veh, ZNF655 / RFU, FAHD1 / Fold change vs veh, FAHD1 / RFU, BDP1 / Fold change vs veh, BDP1 / RFU, LRRCC1 / Fold change vs veh, LRRCC1 / RFU, ARID1A / Fold change vs veh, ARID1A / RFU, ZNF146 / Fold change vs veh, ZNF146 / RFU, ZNF330 / Fold change vs veh, ZNF330 / RFU, GPN3 / Fold change vs veh, GPN3 / RFU, C9orf123 / Fold change vs veh, C9orf123 / RFU, N4BP2L2 / Fold change vs veh, N4BP2L2 / RFU, ARFIP1 / Fold change vs veh, ARFIP1 / RFU, FAM179B / Fold change vs veh, FAM179B / RFU, BCL10 / Fold change vs veh, BCL10 / RFU, UHRF1BP1L / Fold change vs veh, UHRF1BP1L / RFU, BET1 / Fold change vs veh, BET1 / RFU, CNOT2 / Fold change vs veh, CNOT2 / RFU, ZNF268 / Fold change vs veh, ZNF268 / Fold change vs veh, ZNF507 / RFU, DGCR2 / Fold change vs veh, DGCR2 / RFU, WDSUB1 / Fold change vs veh, WDSUB1 / Fold change vs veh, HSP90B1 /// MIR3652 / RFU, ADSS / Fold change vs veh, ADSS / RFU, GK / Fold change vs veh, GK / RFU, ZNF148 / Fold change vs veh, ZNF148 / RFU, TAF9 / Fold change vs veh, TAF9 / RFU, SLC1A5 / Fold change vs veh, SLC1A5 / RFU, SLMO2 / Fold change vs veh, SLMO2 / RFU, ABCC4 / Fold change vs veh, ABCC4 / RFU, LOC101060439 /// RAP1B / Fold change vs veh, LOC101060439 /// RAP1B / RFU, RFX7 / Fold change vs veh, RFX7 / RFU, GTPBP10 / Fold change vs veh, GTPBP10 / RFU, CNEP1R1 / Fold change vs veh, CNEP1R1 / RFU, BIVM-ERCC5 /// ERCC5 / Fold change vs veh, BIVM-ERCC5 /// ERCC5 / RFU, ILF3 / Fold change vs veh, ILF3 / RFU 11762660_at / Fold change /veh 11762660_at / RFU VCAN (11757783_s_at) / Fold change /veh VCAN (11757783_s_at) / RFU DDX43 (11728927_at) / Fold change /veh DDX43 (11728927_at) / RFU KRT8 (11758188_x_at) / Fold change /veh KRT8 (11758188_x_at) / RFU NKD1 (11759106_at) / Fold change /veh NKD1 (11759106_at) / RFU SRD5A1 (11742802_a_at) / Fold change /veh SRD5A1 (11742802_a_at) / RFU TPSAB1 /// TPSB2 (11721975_s_at) / Fold change /veh TPSAB1 /// TPSB2 (11721975_s_at) / RFU GSTM3 (11746129_a_at) / Fold change /veh GSTM3 (11746129_a_at) / RFU IL23R (11737362_x_at) / Fold change /veh IL23R (11737362_x_at) / RFU TMEM51 (11727254_a_at) / Fold change /veh TMEM51 (11727254_a_at) / RFU PIWIL2 (11732686_x_at) / Fold change /veh PIWIL2 (11732686_x_at) / RFU ORM1 (11744905_x_at) / Fold change /veh ORM1 (11744905_x_at) / RFU CCDC152 (11743942_at) / Fold change /veh CCDC152 (11743942_at) / RFU ECM1 (11717891_a_at) / Fold change /veh ECM1 (11717891_a_at) / RFU IL23R (11748794_a_at) / Fold change /veh IL23R (11748794_a_at) / RFU TNFAIP8L3 (11732012_x_at) / Fold change /veh TNFAIP8L3 (11732012_x_at) / RFU MBOAT4 (11741988_at) / Fold change /veh MBOAT4 (11741988_at) / RFU 11764193_at / Fold change /veh 11764193_at / RFU TMEM53 (11763286_at) / Fold change /veh TMEM53 (11763286_at) / RFU MAGEB2 (11727129_at) / Fold change /veh MAGEB2 (11727129_at) / RFU TMEM200A (11744735_a_at) / Fold change /veh TMEM200A (11744735_a_at) / RFU CCDC152 (11751479_a_at) / Fold change /veh CCDC152 (11751479_a_at) / RFU FAM211A (11726209_a_at) / Fold change /veh FAM211A (11726209_a_at) / RFU RGS16 (11746705_a_at) / Fold change /veh RGS16 (11746705_a_at) / RFU VCAN (11755009_s_at) / Fold change /veh VCAN (11755009_s_at) / RFU RHOB (11743442_s_at) / Fold change /veh RHOB (11743442_s_at) / RFU RGS16 (11720943_a_at) / Fold change /veh RGS16 (11720943_a_at) / RFU RGS16 (11720944_at) / Fold change /veh RGS16 (11720944_at) / RFU, VPS4B / Fold change vs veh, VPS4B / RFU, CREB1 / Fold change vs veh, CREB1 / RFU, DNAJC13 / Fold change vs veh, DNAJC13 / RFU, GNAQ / Fold change vs veh, GNAQ / RFU, CDK5R1 / Fold change vs veh, CDK5R1 / RFU, ZRANB3 / Fold change vs veh, ZRANB3 / RFU, CUL4A / Fold change vs veh, CUL4A / RFU, CCNY / Fold change vs veh, CCNY / RFU, UFL1 / Fold change vs veh, UFL1 / RFU, COG3 / Fold change vs veh, COG3 / RFU, DIAPH2 / Fold change vs veh, DIAPH2 / RFU, SKA2 / Fold change vs veh, SKA2 / RFU, AFF3 / Fold change vs veh, AFF3 / RFU, LMF1 / Fold change vs veh, LMF1 / RFU, IPO11 / Fold change vs veh, IPO11 / RFU, DFFB / Fold change vs veh, DFFB / RFU, FOXP1 / Fold change vs veh, FOXP1 / RFU, CARD8 / Fold change vs veh, CARD8 / RFU, STRN3 / Fold change vs veh, STRN3 / RFU, ADK / Fold change vs veh, ADK / RFU, RASSF2 / Fold change vs veh, RASSF2 / RFU, WIPF1 / Fold change vs veh, WIPF1 / RFU, LARP1B / Fold change vs veh, LARP1B / RFU, RASA1 / Fold change vs veh, RASA1 / RFU, RB1 / Fold change vs veh, RB1 / RFU, PPFIA1 / Fold change vs veh, PPFIA1 / RFU, MAT2A / Fold change vs veh, MAT2A / RFU, CCT5 / Fold change vs veh, CCT5 / RFU, WDR92 / Fold change vs veh, WDR92 / RFU, CUX1 / Fold change vs veh, CUX1 / RFU, TTC7A / Fold change vs veh, TTC7A / RFU, TMEM135 / Fold change vs veh, TMEM135 / RFU, DEPTOR / Fold change vs veh, DEPTOR / RFU, CPM / Fold change vs veh, CPM / RFU, DNAJB6 / Fold change vs veh, DNAJB6 / RFU, CACNA2D3 / Fold change vs veh, CACNA2D3 / RFU, DTX4 / Fold change vs veh, DTX4 / RFU, TFCP2 / Fold change vs veh, TFCP2 / RFU, GMCL1 /// GMCL1P1 / Fold change vs veh, GMCL1 /// GMCL1P1 / RFU, AEBP2 / Fold change vs veh, AEBP2 / RFU, SNHG1 /// SNORD22 /// SNORD25 /// SNORD26 /// SNORD27 /// SNORD28 /// SNORD29 /// SNORD31 / Fold change vs veh, SNHG1 /// SNORD22 /// SNORD25 /// SNORD26 /// SNORD27 /// SNORD28 /// SNORD29 /// SNORD31 / Fold change (Aza/veh), C12orf56 (ProbeSet 11735607_a_at) / Fold change (ACY-1035/veh), C12orf56 (ProbeSet 11735607_a_at) / Fold change (Aza/veh), FGFR1OP (ProbeSet 11751329_s_at) / Fold change (ACY-1035/veh), FGFR1OP (ProbeSet 11751329_s_at) / Fold change (Aza/veh), VPS36 (ProbeSet 11739960_a_at) / Fold change (ACY-1035/veh), VPS36 (ProbeSet 11739960_a_at) / RFU SYPL1 (11715823_x_at) / Fold change /veh SYPL1 (11715823_x_at) / RFU IGFBP7 (11715501_s_at) / Fold change /veh IGFBP7 (11715501_s_at) / RFU REEP3 (11722064_at) / Fold change /veh REEP3 (11722064_at) / RFU IGLL1 (11728026_x_at) / Fold change /veh IGLL1 (11728026_x_at): dose or concentration left out as unconfirmed.

Turning to `Nc1ccc(-c2cccs2)cc1NC(=O)c1ccc2c(c1)cc(C1CC1)n2CCN1CCOCC1` [ACY-1035], the “Fold change vs veh, LMF1” value is reported as 0.85.
